Measurements reported in patent US7935825B2, “Arylsulfanyl and heteroarylsulfanyl derivatives for treating pain” (Allergan, Inc., priority 2001, dated 2011).
Where two headings read alike, the source gives them in different places.

How the values were obtained:
[1] = test system: tactile allodynia; experiment: Chronic pain model: spinal nerve (L5/L6) ligation, tactile allodynia measured with von Frey hairs; type: in vivo; details: rats
Source text: A model for chronic pain (in particular peripheral neuropathy such as causalgia) involves the surgical ligation of the L5 (and optionally the L6) spinal nerves on one side in experimental animals. Rats recovering from the surgery gain weight and display a level of general activity similar to that of normal rats. However, these rats develop abnormalities of the foot, wherein the hindpaw is moderately everted and the toes are held together. More importantly, the hindpaw on the side affected by the surgery appears to become sensitive to pain from low-threshold mechanical stimuli, such as that producing a faint sensation of touch in a human, within about 1 week following surgery. This sensitivity to normally non-painful touch is called “tactile allodynia” and lasts for at least two months. The response includes lifting the affected hindpaw to escape from the stimulus, licking the paw and holding it in the air for many seconds. None of these responses is normally seen in the control group.
Rats are anesthetized before surgery. The surgical site is shaved and prepared either with betadine or Novacaine. Incision is made from the thoracic vertebra Xlll down toward the sacrum. Muscle tissue is separated from the spinal vertebra (left side) at the L4-S2 levels. The L6 vertebra is located and the transverse process is carefully removed with a small rongeur to expose the L4-L6 spinal nerves. The L5 and L6 spinal nerves are isolated and tightly ligated with 6-0 silk thread. The same procedure is done on the right side as a control, except no ligation of the spinal nerves is performed.
A complete hemostasis is confirmed, then the wounds are sutured. A small amount of antibiotic ointment is applied to the incised area, and the rat is transferred to the recovery plastic cage under a regulated heat-temperature lamp. On the day of the experiment, at least seven days after the surgery, six rats per test group are administered the test drugs by intraperitoneal (i.p.) injection or oral gavage. For i.p. injection, the compounds are formulated in approximately 50% DMSO and given in a volume of 1 ml/kg body weight. The compound of Example 7 was tested at doses ranging between 30 and 3000 ng/kg. A volume equal to 1 ml/kg body weight of an appropriate concentration (i.e.. 1 mg/ml for a 1 mg/kg dose) of the compound of Example 7 formulated in approximately 50% DMSO was injected using an 18-gauge, 3-inch gavage needle that is slowly inserted through the esophagus into the stomach.
Tactile allodynia is measured prior to and 30 minutes after drug administration using von Frey hairs that are a series of fine hairs with incremental differences in stiffness. Rats are placed in a plastic cage with a wire mesh bottom and allowed to acclimate for approximately 30 minutes. The von Frey hairs are applied perpendicularly through the mesh to the mid-plantar region of the rats' hindpaw with sufficient force to cause slight buckling and held for 6-8 seconds. The applied force has been calculated to range from 0.41 to 15.1 grams. If the paw is sharply withdrawn, it is considered a positive response. A normal animal will not respond to stimuli in this range, but a surgically ligated paw will be withdrawn in response to a 1-2 gram hair. The 50% paw withdrawal threshold is determined using the method of Dixon, W. J., Ann. Rev. Pharmacol. Toxicol. 20:441-462 (1980). The post-drug threshold is compared to the pre-drug threshold and the percent reversal of tactile sensitivity is calculated based on a normal threshold of 15.1 grams. […] Compared to a saline solution, this compound reversed the allodynic pain by 25% at an i.p. dose of 100 ng/kg, 60% at 300 ng/kg, 90% at […] and 92% at 3000 ng/kg.

[2] = test system: receptors for PGE2; details: cited from earlier work
[3] = i.p. dose of 100 ng/kg, 30 minutes after drug administration
[4] = i.p. dose of 300 ng/kg, 30 minutes after drug administration

Structure (SMILES)	reversal of allodynic pain (percent reversal of tactile sensitivity) ([1]; i.p. dose of 30 ng/kg, 30 minutes after drug administration)	reversal of allodynic pain (percent reversal of tactile sensitivity) [1, 3]	reversal of allodynic pain (percent reversal of tactile sensitivity) [1, 4]	reversal of allodynic pain (percent reversal of tactile sensitivity) ([1]; i.p., dose figure not printed ("at ng/kg"))	response to the tactile stimuli that indicate tactile allodynia ([1]; doses between 30 and 3000 ng/kg)	reversal of allodynic pain (percent reversal of tactile sensitivity) ([1]; i.p. dose of 3000 ng/kg, 30 minutes after drug administration)	reversal of allodynic pain (percent reversal of tactile sensitivity) ([1]; i.p. dose printed as 100 mg/kg, 30 minutes after drug administration)	effect on PGE2 action in tissue ([2]; cat trachea or chick ileum)	effect on PGE2 action in tissue ([2]; guinea pig ileum or dog fundus)
CCN(Cc1cc(Br)ccc1OCc1ccccc1)c1ccc(C(=O)O)cn1 [6-[(2-Benzyloxy-5-bromobenzyl)ethylamino]nicotinic acid]	10%	50%	55%	60%	–	–	–	–	–
CCN(Cc1ccccc1SCc1ccccc1)c1ccc(C(=O)O)cn1 [Example 7, 6-[(2-Benzylsulfanylbenzyl)ethylamino]nicotinic acid]	–	25%	60%	–	able to reduce the response to the tactile stimuli	92%	90%	–	–
CC(=O)NNC(=O)N1Cc2ccccc2Oc2ccc(Cl)cc21 [SC-19220]	–	–	–	–	–	–	–	not on other tissues	blocks the effect of PGE2
